# In patent US20050004136A1, “Novel amidoalkyl-piperidine and amidoalkyl-piperazine derivatives useful as neurokinin receptor modulators” (priority 2000, published 2005):
# Experiments:
# [1] = system: serotonin neural pathways; experiment: DOI Headshake Model; type: in vivo; design: key: Active: A statistically significant decrease in the number of headshakes induced by the administration of DOI in the mice given the test compound relative to the mice given the control was an indication of modulation of the serotonin neural pathways and thus an indication of an active compound; conditions: DOI-induced headshakes, mice (NIH Swiss; starred compounds also CD-1); for Number of Headshakes, IP Admin: i.p., doses up to 100 mg/kg; for Number of Headshakes, Oral Admin.: doses up to 40 mg/kg
# Experimental: Male CD-1 or NIH-Swiss mice were fasted overnight. The mice were given control vehicle or test compound by the oral or intraperitoneal (i.p.) routes of administration at doses up to 40 mg/kg orally and up to 100 mg/kg i.p. Administration time was denoted as t0. At each of several selected intervals after t0 (at about 45 min, 1 h, 2 h, 4 h, 6 h, 8 h, 24 h after administration), separate groups of mice were given 1-{2,5-dimethoxy-4-iodophenyl]-2-aminopropane (DOI), a known serotonin receptor type-2A agonist, by the intraperitoneal route of administration route. […] (Separate groups of mice were tested at each time interval.) Peak activity time, denoted as tp, was determined as the time of the greatest reduction in the number of DOI-induced headshakes for mice given the test compound compared to the number of headshakes for the mice given the control, measured at the same time interval.
# A statistically significant decrease in the number of headshakes induced by the administration of DOI in the mice given the test compound relative to the mice given the control was an indication of modulation of the serotonin neural pathways and thus an indication of an active compound.
# In vivo biological activity was measured for select compounds of the present invention as listed in Table 11, using the procedures outlined above. Starred (*) compounds were tested on both male CD-1 mice and NIH Swiss mice, all other compounds were tested using Swiss NIH mice.
# [2] = system: Senktide-induced headshake; experiment: Reversal of Senktide-induced head shake in mice; type: in vivo; design: key: Active = a statistically significant (Mann-Whitney t-test (one-tailed)) reduction in the headshakes produced by senktide (5 mg/kg), in animals dosed with test compound 10 mg/kg po; conditions: NIH-Swiss mice, test compound 10 mg/kg po, senktide 5 mg/kg sc 45 min later, 10 min count
# Experimental: The in vivo assay measuring the reversal of Senktide-induced headshake in mice has been previously described in the literature by Sarau, H. M., et al in J. Pharmacol. Exp. Therapeutics (2000), 295 pp 373-381.
# Briefly, overnight fasted NIH-Swiss mice weighing 18-21 gms were treated with test compound or vehicle by the oral (gavage) route, at various concentrations. Forty five (45) minutes after administration, the animals are injected subcutaneously (sc) with Senktide at a concentration of 5 mg/kg. Immediately after administration of the Senktide, the animals are randomized and laced into isolated observation chambers and the number of headshakes per recorded over a ten (10) minute period. A decrease in the number of Senktide induced headshakes for test compound treated animals as compared with vehicle treated animals (analysis completed using Mann-Whitney t-test (one tailed)) was taken as an indication of anxiolytic activity for the compound.
# Representative compounds of the instant invention were tested for reversal of Senktide-induced headshakes in mice, with results as listed in Table 12.
# rats [3] = experiment: Elevated Plus Maze (EPM) Test; type: in vivo; design: key: Active = statistically significant (Mann Whitney U test p < 0.05) increase in open arm time or open arm entries at 10 mg/kg po; conditions: Long-Evans Hooded rats, 10 mg/kg po, one hour after dosing
# Experimental: (§1) Male Long-Evans Hooded rats weighing 180 to 200 grams were purchased from Charles River Inc (Portage MI). The rats were housed in groups of four at an ambient temperature of 21 to 23° C. in a room with an automated 12/12 hour light/dark cycle. The rats had access to water and a commercial rodent food ad libitum. At the time of the experiment the rats weighed 220 to 350 grams.
# (§2) The assay was run with test compound or vehicle administered to the animals at time zero. Fifty minutes after administration, the animals were tested in the SMA (Spontaneous Locomotor Activity), which was completed in 10 minutes. Immediately following SMA testing, the rats were moved and tested in the EPM (elevated Plus Maze), which was also completed in ten minutes. Test compounds were suspended in an aqueous vehicle (MC) comprised of 0.5% Methylcellulose and administered p.o.
# The elevated plus maze (EPM) is the most widely used animal test of anxiety. The fully quantitative computerized EPM has validity as an anxiety model from the theoretical basis and pharmacological responses. The EPM also has high ecological validity since it studies the spontaneous behavioral patterns in response to interactions with the environment.
# The procedure is based on the natural aversion of rodents to explore open and high places, as well as their innate tendency for thigmotaxis. When rats are placed on the elevated-plus maze, they have a normal tendency to remain in the enclosed arms of the maze and avoid venturing into the open arms. Animals treated with typical or atypical anxiolytics show an increase in the percentage of time spent (% Time) and/or the percentage of entries made (% Entries) into the open arms.
# The test apparatus used consisted of a black plastic maze with two open arms and two arms with 40 cm high walls (enclosed arms) of equal length (50 cm) extending from the center at right angles, such that arms of similar type were opposite each other. Each plus-maze was elevated approximately 60 cm above the floor. Infrared photo-beams that crossed the entrance of each arm and the center of the maze detected the exploratory activity of an animal in the maze. […]
# Anxiolytic activity of a test compound was quantified using two parameters: a) the percent of total time spent by a rat in one of the two open arms of the apparatus (% open arm time) which was calculated as follows: [formula] • and b) the number of times a rat entered the open arms relative to the total entries into all arms and the center area (% open arm entries), calculated as follows: [formula]
# Data were analyzed for statistical significance between drug and vehicle-treated groups via one tailed Mann-Whitney T-Test. […]
# rats [4] = experiment: Spontaneous Locomotor Activity (SMA) Test; type: in vivo; design: key: Increase = statistically significant (Mann Whitney U test p < 0.05) increase in horizontal activity and vertical movements indicating lack of sedation or motor impairment at 10 mg/kg po; conditions: Long-Evans Hooded rats, 10 mg/kg po, 50 minutes after administration; decrease = sedation
# Experimental: as §1, §2
# The test apparatus consisted of a plastic cubicle (40.6 cm, length; 40.6 cm, width; 30.5 cm, height) that was placed in the center of a main frame. Photocell sensors (8 beams from front to back and 8 beams from side to side) were built into the sides of the frame for monitoring horizontal movement. The photocells were located at right angles to each other, projecting horizontal infrared beams of light 5 cm apart and 2 cm above the floor to measure horizontal activity, and 5 cm apart and 14 cm above the floor to measure vertical activity. Rats were divided into groups (N=8 to 12). Test compound or vehicle was administered orally by gavage in a dose volume equivalent to 5 mL/kg. At 50 minutes after administration each rat was placed into a separate plastic cubicle and spontaneous exploratory activity was recorded for 10 minutes. Horizontal and vertical movements of the rats were recorded by counting the number of times the beams of light were interrupted (horizontal and vertical counts). Collection of the data and preliminary data analysis was automated. A drug-induced decrease in spontaneous horizontal or vertical motor activity was regarded as an indication of sedation.
# HA data were analyzed for statistical significance between drug and vehicle-treated groups that were administered either the vehicle or each dose of the test compound by a one-way analysis of variance. Then Dunnett's multiple comparison method was used to test for a reduction (p<0.05, 1-tailed) in the average number of HA counts or VM counts in drug-treated groups, compared to a concurrently run vehicle-treated group. If the probability was less than 5% (p<0.05) that a decrease in HA and/or VM in the drug-treated group compared to a concurrently run vehicle-treated group was due to chance, then the dose of the test compound was considered to have sedative activity. Mann-Whitney T-Test is used in cases where the distribution of the data is non-gaussian.
# cisplatin induced emesis = experiment: Anti-emetic test, cisplatin induced emesis; type: in vivo, shrew; conditions: shrews, 20 mg/kg, administered subcutaneously; statistically significant reduction
# Experimental: The effectiveness of a test compound to inhibit emesis in the shrew were determined according to the procedure described in Darmani, N. A. Serotonin 5-HT3 receptor antagonists prevent cisplatin-induced emesis in Cryptosis parva: a new experimental model of emesis. J Neural. Transm. 1998, 105, 1143-1154.
SMILES,"Number of Headshakes, IP Admin [1]","Number of Headshakes, Oral Admin. [1]",Senktide Headshake Assay [2],Increase % Open Arm Entries (rats [3]),Increase % Open Arm Time (rats [3]),SMA Horizontal Activity (rats [4]),SMA Vertical Movement (rats [4]),cisplatin induced emesis in vivo test (reduction in cisplatin induced retching behavior) (cisplatin induced emesis)
"O=C(CC1CCN(C(=O)c2cccc(C#Cc3ccccn3)c2)CC1)Nc1ccccc1 [Compound 10, N-phenyl-1-[3-(2-pyridinylethynyl)benzoyl]4-piperdineacetamide]",Active,Active,Active,Active,Active,Increase,Increase,active
"O=C(CC1CCN(C(=O)c2ccc(/C=C\c3ccncc3)cc2)CC1)Nc1ccccc1 [Compound 73, N-phenyl-1-[4-[(Z)-2-(4-pyridinyl)ethenyl]benzoyl]-4-piperidineacetamide]",Active,Active,–,–,–,–,–,–
"O=C(CC1CCN(C(=O)c2cccc(C#Cc3ccccn3)c2)CC1)Nc1ccc(O)cc1 [Compound 75, N-(4-hydroxyphenyl)-1-[3-(2-pyridinylethynyl)benzoyl]-4-piperidineacetamide]",Active,Active,–,Active,Active,Increase,Increase,–
"O=C(CN1CCN(C(=O)c2cccc(C#Cc3ccccn3)c2)CC1)Nc1ccccc1 [Compound 106, N-phenyl-4-[3-(2-pyridinylethynyl)benzoyl]-1-piperazineacetamide]",Active,Active,–,–,–,–,–,–
"O=C(CN1CCN(C(=O)c2cccc(NCc3cc(C(F)(F)F)cc(C(F)(F)F)c3)c2)CC1)Nc1ccccc1 [Compound 501, 4-[3-[[[3,5-bis(trifluoromethyl)phenyl]methyl]amino]benzoyl]-N-phenyl-1-piperazineacetamide]",–,Inactive,–,–,–,–,–,–
